# Source: article PMC13168289, “Potent acridone antimalarial against all three life stages of Plasmodium” (Nature Communications, 2026)
# Read-outs that look alike come from different tables or passages of the source.
# Tests used:
# [1] = tested on: P. falciparum K13 mutant parasites SP045 and SP060; experiment: Growth, Resistance, and Recovery Assay (GRRA), ring-stage survival dose-response; assay type: cell-based, Plasmodium falciparum; settings: read-out: GRRA50
# Protocol: These isolates carry the validated R561H Kelch 13 propeller domain mutation associated with delayed parasite clearance in East Africa[24],[25]. Using the 6-hour GRRA[23], all strains were thawed, frozen, and cultured under standard conditions at 5% hematocrit. Samples parasitemia was measured by flow cytometry. Parasite cultures that were predominantly segmented schizonts were synchronized using a single Percoll layer method. Cultures that met quality control requirements of ≥70% early ring stage and ≥1% parasitemia were adjusted to 0.25% parasitemia at 2% hematocrit. […] The GRRA50 implements 11 RSA experiments to generate a dose-response curve for each parasite line per drug. Master mixes of samples were aliquoted into 2 technical replicates of 275 µL each in 96 well plates (2 treated each condition, 2 untreated). At 6 h post-exposure, 200 µL of media was removed from the wells and replaced with 200 µL of incomplete media and spun for 3 min at 800 g to rinse. The rinse was repeated a total of 3 times, after which 200 µL complete media was added back to the wells. At 120 h post-treatment, thin microscopy smears were made using 2 µL of culture for each sample and 20 µL of culture was transferred to PCR strips and stored at −80 °C until qPCR quantification. A standard curve of known parasitemia was generated using the NF54 parasite line for each qPCR quantification for conversion from Cycle threshold (Ct) to parasitemia and comparison between qPCR experiments. Replicate viability was calculated according to the GRRA method. Each individual reaction mixture and cycling conditions were set to previously used methods. Ct was calculated using AB1 SDA 2.4.1. software. […] We find that commonly reported thresholds (cutoffs) for resistance (e.g., 1% survival in traditional RSA) may not be broadly applicable, especially with lower thresholds subject to potential artifacts due to markedly low survival rates of ART-sensitive and low-level ART-resistant parasites. Regular RSA relies on a single drug concentration, 700 nM. To gain a more fine-scale quantification to compare drug susceptibilities with relevance to therapeutic success and failure, we developed the GRRA50 to generate full dose-response curves for precise quantitative comparisons.
# [2] = tested on: fresh P. falciparum isolates; experiment: Ex vivo 72-h growth inhibition assay with SYBR Green detection; assay type: cell-based, Plasmodium falciparum
# Protocol: Isolates were collected from patients with uncomplicated falciparum malaria in Bobo-Dioulasso, Burkina Faso and Tororo, Uganda. For parasite culture, parasitemia was identified with Giemsa-stained thin films using a light microscope. […] Isolates were stored at 4 °C and assayed within 24 h of collection. […] Study compounds were dissolved in DMSO as 10 mM stocks and stored at -20 °C. Drugs were serially diluted, including drug-free and parasite-free control wells, with concentrations optimized to capture full dose-response curves. Cultures were diluted with uninfected O^+ erythrocytes to achieve 0.2% parasitemia and 2% hematocrit. After 72 h, wells were resuspended, and culture from each well was transferred to 96-well plates containing SYBR Green lysis buffer and mixed. Plates were incubated for 1 h in the dark at room temperature, and fluorescence was measured with a plate reader (485 nm excitation and 530 nm emission).
# blood-stage P. yoelii = experiment: 4-day suppression murine model, oral; assay type: in vivo, P. yoelii in CF1 mice
# Source text: Animals were housed at the VAPORHCS in Thoren Maxi-Miser microisolator cages (78 sq. in. floor space) with a maximum density of five females or four males per cage. Cages were maintained on a 12-h light/dark cycle and provided with autoclaved nesting materials (nestlets) for environmental enrichment. All mice had ad libitum access to food and water. Four- to five-week-old female and male outbred CF1 mice (Charles River Laboratories, Raleigh, NC, USA) were randomly assigned to treatment and control groups using a simple randomization procedure (e.g., computer-generated random numbers) to ensure balanced distribution of baseline body weights and starting parasitemia levels across all cohorts. Groups of four mice (n = 4, mean body weight of each group was ~30 g) were infected intravenously with 3.5 × 10^4 P. yoelii (Kenya strain, MRA-428) from a donor animal. Drug administration commenced the day after the animals were inoculated (Day 1). The test drug or the drug combination was dissolved in PEG-400 and administered by oral gavage once daily for 4 successive days in the 4-day suppression model, but only once on Day 1 in the single-dose cure model. Blood was collected via the tail vein with the aid of a syringe needle on Day 5 and then at weekly intervals through Day 28. Blood films were Giemsa-stained and examined microscopically to determine the level of parasitemia. All mice were observed daily to assess clinical signs. Animals with observable parasitemia following the experiments were euthanized; animals cleared of parasitemia from their bloodstream were observed daily with assessment of parasitemia performed weekly until Day 28, at which point, the animal(s) were scored as cured of the infection and then humanely euthanized. All treated mice with a negative smear on Day 28 were considered cured (100% protection). […]
# [3] = in vivo pharmacokinetics, single oral dose; design: species or system ICR-CD1 mice; settings: 40 mg/kg oral
# Protocol: PK studies were conducted using well-established methods[21],[31],[50]. Four to five weeks old male and female outbred ICR-CD1 mice (Charles River Laboratories. Inc. Raleigh, NC) weighing 23–35 g were used for PK studies. Animals were assigned unique study numbers via ear tags and cage cards and were randomly assigned to treatment or control groups (n = 3 per group) using a weigh-stratified randomization procedure. All animals were quarantined and acclimatized for 7 days prior to study initiation and were housed in a 12:12 light/dark cycle with food and water provided ad libitum. […] At each time point, a terminal whole blood sample was collected by cardiac puncture using heparinized syringes (Heparin, Hospira, Lake Forest, IL), while mice were under anesthesia in accordance with the approved IACUC protocol. Following the separation of appropriate aliquots, plasma was obtained from the whole blood via centrifugation at 16,200 rpm for 10 min at 4 °C. Mice were humanely euthanized as described in the protocol, after which the liver samples were also collected and weighed at each experimental time point. All tissue samples were immediately preserved on dry ice and later stored at −80 °C until analytical work was performed. Drug concentrations were determined for each sample taken from animals dosed with the test compound. PK parameters such as time to maximum plasma concentration (Tmax), maximum plasma concentration (Cmax), the apparent elimination half-life (t1/2), area under the curve (AUC), etc., were obtained using noncompartmental analysis via the Phoenix WinNonlin software package (version 6.4; Pharsight Corp., Mountain View, CA).
# [4] = as stated in response to reviewers
smiles,measurement,setting,value
O=c1c2ccc(Oc3ccc(OC(F)(F)F)cc3)cc2[nH]c2cc(Cl)cc(F)c12 [T111],IC50,"[1]; SP045 (K13 V555A, ART-S)",0.78 nM
same,IC50,"[1]; SP060 (K13 R561H, ART-R)",0.87 nM
same,IC50,"[2]; Burkina Faso isolates, n = 78, read-out: IC50 range",0.0013 to 0.49 nM
same,IC50,"[2]; Burkina Faso isolates, n = 78, read-out: median IC50",0.062 nM
same,IC50,"[2]; Uganda isolates, n = 81, read-out: IC50 range",0.0038 to 0.66 nM
same,IC50,"[2]; Uganda isolates, n = 81, read-out: median IC50",0.049 nM
same,ED50,blood-stage P. yoelii; [4],0.27 mg/kg/day
same,ED90,blood-stage P. yoelii; [4],0.39 mg/kg/day
same,ED50,"blood-stage P. yoelii; female mice, oral",0.35 mg/kg/day
same,ED90,"blood-stage P. yoelii; female mice, oral",0.50 mg/kg/day
same,curative dose,"blood-stage P. yoelii; four consecutive days, oral",10 mg/kg/day
same,ED50,"blood-stage P. yoelii; male mice, oral",0.33 mg/kg/day
same,ED90,"blood-stage P. yoelii; male mice, oral",0.46 mg/kg/day
same,AUCinf,"[3]; female, liver","23,495 ng.h/mL"
same,AUClast,"[3]; female, liver","23,384 ng.h/mL"
same,Cmax,"[3]; female, liver",1503 ng/mL
same,Tmax,"[3]; female, liver",8.0 h
same,AUCinf,"[3]; female, plasma",185 ng·h/mL
same,AUClast,"[3]; female, plasma",169 ng·h/mL
same,Cmax,"[3]; female, plasma",11.3 ng/mL
same,Tmax,"[3]; female, plasma",4.0 h
same,AUCinf,"[3]; male, liver","26,044 ng.h/mL"
same,AUClast,"[3]; male, liver","25,969 ng.h/mL"
same,Cmax,"[3]; male, liver",1704 ng/mL
same,Tmax,"[3]; male, liver",1.0 h
same,AUCinf,"[3]; male, plasma",180 ng·h/mL
same,AUClast,"[3]; male, plasma",156 ng·h/mL
same,Cmax,"[3]; male, plasma",6.8 ng/mL
same,Tmax,"[3]; male, plasma",4.0 h
